Source: publication PMC4912613, “A broad analysis of resistance development in the malaria parasite” (Nature Communications, 2016)
Marks after values point to notes of the source that are not given here.

Experiments:
[1] = test system: P. falciparum 3D7, Dd2, Dd2Δexo; assay: In vitro evolution of compound-resistant lines (selection); assay type: cell-based, Plasmodium falciparum; settings: for # of Resistant Strains Generated: resistant cultures out of three independent cultures; for EC50 fold shifts observed: selected parasites vs selection parent
Excerpt: While we found an overall lack of pre-existing resistance, analysing the onset of resistance was critical, as compounds resulting in rapid resistance are not ideal for clinical development. We therefore sought to create drug-resistant parasites using a variety of different selection methods. We implemented either a high-dose method or a ramp-up/pulse method for our in vitro selections. Two of the 50 compounds—MMV028895 and MMV665824—were removed from the selection study during experimentation. […] Out of the remaining 48 compounds, resistant parasites were obtained for 23 (Supplementary Data 1). As each selection was performed in triplicate with three independent cultures, we succeeded in generating a total of 66 resistant cultures. Parasites resistant to MMV026596 were not obtained despite 100 days of selection, but the cultures acquired hypersensitivity to mefloquine with a 10-fold reduction in EC50 compared with its parental line, 3D7. For the remaining 24 compounds, acquisition of resistant parasites was unsuccessful despite numerous attempts over an extensive period of time.
Based on the compound speed of action and lab specialty, selections were conducted using a high-pressure intermittent selection method, a step-wise selection method, or a constant selection method. For high-pressure selections, ∼1–2 × 10^9 parasites were treated at a concentration of 3–10 × EC50 until parasites could not be seen by microscopy (4–10 days). Following treatment, compound pressure was removed and cultures were allowed to recover. Once healthy parasites were seen and parasitemia reached ∼2%, compound pressure was reinstated. For step-wise selections, ∼1 × 10^8 parasites were treated at a starting concentration resulting in a reduced growth rate of 50%. Cultures were examined daily by microscopy, increasing compound concentration in increments of 5–10% as needed to maintain a 50% reduced growth rate. Selections were carried out until cultures achieved a reproducible EC50 fold shift of >3 × . Finally, constant selections were conducted in a similar manner to the high-pressure intermittent method with the exception that compound pressure was never removed. Following successful selection, cultures were cloned out using a limiting dilution method as previously described. Selections were terminated after 200 days if resistance could not be obtained.

PfCRT-Q352R (parent Dd2) = assay: Cross-resistance EC50 assay, PfCRT-Q352R; assay type: cell-based; settings: Plasmodium falciparum, DD2, 72 h, read-out: PfCRT:Q352R (Dd2 Parent) Average EC50
Excerpt: (§1) To evaluate potential overlapping activity against known antimalarial drug targets, we performed dose-response studies with each compound against our assembled set of drug-resistant lines and their corresponding parents, in an asexual blood stage proliferation assay (Table 1). Comparisons were made to the drug-sensitive strain 3D7 when a parent was unavailable (TM90C2A, W2 and Dd2). As laboratories conducted EC50 assays with different strains and protocols, all comparisons were made between assays from the same laboratory and under the same assay conditions. Compounds displaying >5-fold EC50 shifts relative to the parent or sensitive strain were flagged as having potentially non-novel targets. Average fold shifts per strain ranged from 0.82 to 2.34, with a median of 1.23 indicating there was not common resistance to any one resistant clone. No resistance patterns were observed when classifying the compounds based on chemical structure, but this was not surprising given the diversity of compounds chosen. On the other hand, given that these confirmed compounds were derived from larger unconfirmed hit lists to which some filtration criteria may have been applied (for example, elimination of obvious dihydrofolate reductase inhibitors[32]), some[10][11][12][13] pre-existing bias may exist in the set. […]
(§2) Alternatively, a SYBR Green-based proliferation approach was used for the 72-h assay, as previously described. Briefly, a culture of either synchronized or asynchronous parasitized RBCs (0.3% parasitemia and 4% haematocrit) in screening medium (identical to supplemented medium above except no serum was added) was exposed to serial drug dilutions. Plates were incubated at 37 °C and gassed with 93% N2, 4% CO2 and 3% O2 for 72 h. Following incubation, 10 × SYBR Green I (Invitrogen; supplied in 10,000 × concentration) in lysis buffer ([…], 5 mM EDTA, 0.16% Saponin wt per vol and 1.6% Triton X vol per vol) was added to the wells and the plates were incubated overnight at room temperature before plate reading. EC50 assays were repeated three times, taking the average EC50 value from each assay set, and removing any outliers using a single iteration of Grubbs' test, eliminating values with z-scores above the critical z-value (α=0.05). The raw EC50 values for synchronized parasites assayed in a 384-well format are listed in Supplementary Data 4. The raw EC50 values for asynchronous parasites assayed in a 96 or 1536-well format are listed in Supplementary Data 5.
(§3) EC50 values for each strain were compared with those of the corresponding parent strain to determine fold-shift changes and identify resistance. To minimize the cause variance between assays, all comparisons were conducted between strains assayed under identical conditions. A one-way ANOVA followed by a Dunnet's post-test was conducted in GraphPad Prism to identify significant changes between the parent and resistant strain.

[2] = test system: DHODH (E182D, parent 3D7); assay: Cross-resistance EC50 assay, DHODH; assay type: cell-based; settings: Plasmodium falciparum, SYBR green 72 hour assay, synchronized parasites, 384-well format
Excerpt: as §1, §2, §3

[3] = test system: GNF156R (PfCARL L830V, S1076I and M81I, parent Dd2); assay: Cross-resistance EC50 assay, GNF156R; assay type: cell-based; settings: Plasmodium falciparum, SYBR green 72 hour assay, asynchronized parasites, 96-well or 1536-well format
Excerpt: as §1, §2, §3

SMILES	Time Length to Obtain Mutants ([1]; in vitro selection)	# of Resistant Strains Generated [1]	EC50 fold shifts observed [1]	EC50 (PfCRT-Q352R (parent Dd2)) [nM]	EC50 ([2]; 3D7, DHODH strain) [nM]	EC50 [3] [µM]	EC50 ([2]; strain DHODH (3D7 parent)) [nM]	acquisition of resistant parasites ([1]; in vitro selection)
COc1ccc2c3c([nH]c2c1)[C@H](CO)N(C(C)=O)CC31CCN(C(=O)Nc2ccccc2F)CC1 [MMV673482]	SHORT (0-50 days)	2/3	7-18x	71	151	–	–	–
CN(C)Cc1ccc(-c2cc3c(-c4ccc(CN(C)C)cc4)ccnc3[nH]2)cc1.O=C(O)C(F)(F)F [MMV022224]	LONG (> 125 days)	0/3	no shift	320	–	0.429	321	–
COc1cc(C(=O)ON=C(N)Cc2cccc3ccccc23)cc(OC)c1OC [MMV666687]	LONG (> 125 days)	0/3	no shift	326	–	0.611	1070	–
O=C(Nc1ccc(Cl)c(Cl)c1)Nc1ccc(Cl)c(Cl)c1 [MMV665852]	LONG (> 125 days)	0/3	no shift	905	–	0.75	1770	–
Nc1ccc(-c2nc3cc(Oc4ccc(Oc5ccc6[nH]c(-c7ccc(N)cc7)nc6c5)cc4)ccc3[nH]2)cc1 [MMV011895]	LONG (> 125 days)	2/3	2-4x	206	–	0.126	168	–
CC(C)c1cccc(C(NC(=O)C2Cc3ccccc3CN2C(=O)c2cccc(N3CCOCC3)c2)C2CCCC2)c1 (stereo not drawn) [MMV028038]	MODERATE (50-125 days)	3/3	5-30x	314	–	0.654	1270	–
FC(F)(F)c1cccc(Nc2nc3ccccc3nc2Nc2cccc(C(F)(F)F)c2)c1 [MMV665794]	SHORT (0-50 days)	0/3	no shift	116	–	0.135	187	–
c1cc(-c2cnc3ccc(-c4ccc(N5CCOCC5)cc4)nn23)ccn1 [MMV668311]	LONG (> 125 days)	0/3	no shift	63	–	0.031	42	–
CCN(CC)CCn1c(=N)n(CC(O)c2ccc(Cl)c(Cl)c2)c2ccccc21.Cl (stereo not drawn) [MMV000248]	LONG (> 125 days)	0/3	no shift	329	–	0.432	315	–
COc1ccc(NC(=O)N2CCCCN3[C@H](CN)[C@H](c4ccc(C#Cc5ccccc5)cc4)[C@@H]3C2)cc1 [BRD1095]	SHORT (0-50 days)	3/3	4-100x	12	23	0.00166	–	–
Cc1cc(Nc2ccc(OCc3ccccc3)cc2)nc2cc(O)ccc12 [MMV007181]	LONG (> 125 days)	0/3	no shift	133	–	0.163	206	–
CC(NCc1ccccc1)c1cc(Cl)ccc1O (stereo not drawn) [MMV665789]	MODERATE (50-125 days)	2/3	3-7x	571	–	0.681	728	–
COc1cc2cc(C(=O)Nc3ccccc3)c(N)nc2cc1OC [MMV006767]	MODERATE (50-125 days)	2/3*	2-4x	1480	–	0.379	519	–
COc1ccc(N2CCN(C(CNC(=O)C3CCCCC3)c3ccc4c(c3)OCO4)CC2)cc1 (stereo not drawn) [MMV019662]	MODERATE (50-125 days)	3/3	15x	356	–	0.405	860	–
CN1CCN(c2ccc(Nc3c4ccccc4nc4ccccc34)cc2)CC1 [MMV006172]	LONG (> 125 days)	0/3	no shift	75	–	0.32	50	–
CCC(C)NCC(O)(c1ccc(Cl)cc1)c1ccc(Cl)cc1 (stereo not drawn) [MMV665928]	SHORT (0-50 days)	0/3	no shift	486	–	0.682	878	–
OC(CNC1CCCCC1)Cn1c2ccc(I)cc2c2cc(I)ccc21 (stereo not drawn) [MMV665882]	LONG (> 125 days)	3/3	2-3x	47	–	0.068	51	–
Brc1ccc(Nc2nc3ccccc3nc2Nc2ccc(Br)cc2)cc1 [MMV007224]	LONG (> 125 days)	3/3	1.7x	287	–	0.712	606	–
Cc1nc2ccc3ccc(CNc4ccc(C(=O)CC(CCC(=O)O)C(=O)O)cc4)cc3c2c(=O)[nH]1.Cl (stereo not drawn) [MMV027634]	SHORT (0-50 days)	3/3	>15x	38	–	0.229	33	–
CNCc1ccc2nc(-c3coc(Cc4cc(Cl)ccc4OCC(C)C)n3)[nH]c2c1.Cl.Cl [MMV026596]	LONG (> 125 days)	0/3	no shift	451	–	0.414	392	not obtained
COc1ccccc1CNC(=O)CCn1c(=O)[nH]c2ccsc2c1=O [MMV019066]	SHORT (0-50 days)	3/3	>15x	63	–	0.008	53	–
CN(C)CCCNCc1ccc(-c2ccc(Cl)c(Cl)c2)o1 [MMV673964]	LONG (> 125 days)	0/3	no shift	552	337	1.33	–	–
CN(C)CCCN(C)C(=O)C1Cc2cc(-c3ccccc3)ccc2N1S(=O)(=O)c1ccccc1 (stereo not drawn) [MMV028895]	–	–	–	240	–	3.92	81	–
